pEC50, pIC50: −log10 of the molar value.
Key:
Urotensin-2 receptor [1] = target: T1, Urotensin-2 receptor (Homo sapiens, UniProt Q9UKP6); test: Agonist activity at human UT receptor expressed in HEK293 cells co-expressing Gq-polycistronic BRET biosensor assessed as induction of Gq activation measured for 5 mins by luminescence detection based BRET assay; assay type: functional, cell-based
T1 sequence (Q9UKP6 whole entry): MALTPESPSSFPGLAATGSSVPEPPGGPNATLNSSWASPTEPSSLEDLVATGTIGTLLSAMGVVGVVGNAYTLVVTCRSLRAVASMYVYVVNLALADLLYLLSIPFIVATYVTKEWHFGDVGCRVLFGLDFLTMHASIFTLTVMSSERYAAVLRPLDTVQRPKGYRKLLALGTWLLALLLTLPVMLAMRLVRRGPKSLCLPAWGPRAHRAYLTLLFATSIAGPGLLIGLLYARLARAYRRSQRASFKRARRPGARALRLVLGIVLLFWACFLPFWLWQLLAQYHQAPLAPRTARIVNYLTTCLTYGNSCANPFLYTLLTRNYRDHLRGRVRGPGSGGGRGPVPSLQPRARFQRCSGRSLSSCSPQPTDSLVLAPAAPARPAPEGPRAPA

Urotensin-2 receptor [2] = target: T1, Urotensin-2 receptor; test: Displacement of [Na125I]-synthetic URP from human UT receptor expressed in HEK293 cell membranes incubated for 2 hrs by gamma-counting
Urotensin-2 receptor [3] = target: T1, Urotensin-2 receptor; test: Agonist activity at human UT receptor expressed in HEK293 cells co-expressing beta-arrestin1-polycistronic BRET biosensor assessed as induction of beta-arrestin1 recruitment measured for 5 mins by luminescence detection based BRET assay; assay type: functional, cell-based
Urotensin-2 receptor [4] = target: T2, Urotensin-2 receptor (Rattus norvegicus, UniProt P49684); test: Agonist activity at UT receptor in Sprague-Dawley rat thoracic aortic ring assessed as induction of contraction; assay type: functional
T2 sequence (P49684 whole entry): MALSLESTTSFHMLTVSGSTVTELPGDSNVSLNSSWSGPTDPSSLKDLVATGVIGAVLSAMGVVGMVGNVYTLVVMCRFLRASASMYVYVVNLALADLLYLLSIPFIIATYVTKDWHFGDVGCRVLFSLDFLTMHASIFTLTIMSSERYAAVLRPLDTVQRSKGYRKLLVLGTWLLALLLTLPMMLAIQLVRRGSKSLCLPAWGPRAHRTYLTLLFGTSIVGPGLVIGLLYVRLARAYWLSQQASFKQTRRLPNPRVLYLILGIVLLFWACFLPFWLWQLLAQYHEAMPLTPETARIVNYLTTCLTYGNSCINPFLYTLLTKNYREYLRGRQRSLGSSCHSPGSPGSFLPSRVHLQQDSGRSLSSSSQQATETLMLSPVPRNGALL

Urotensin-2 receptor [5] = target: T1, Urotensin-2 receptor; test: Agonist activity at human UT receptor expressed in HEK293 cells co-expressing G12-polycistronic BRET biosensor assessed as induction of G12 activation measured for 5 mins by luminescence detection based BRET assay; assay type: functional, cell-based
[6] = target: T3, Urotensin-2 receptor (Homo sapiens) (UniProt Q9UKP6); test: Bias factor, ratio of deltalog(Tau/KA) for agonist activity at human UT receptor expressed in HEK293 cells co-expressing G12-polycistronic BRET biosensor assessed as induction of G12 activation by luminescence detection based BRET assay to deltalog(Tau/KA) for agonist activity at human UT receptor expressed in HEK293 cells co-expressing Gq-polycistronic BRET biosensor assessed as induction of Gq activation by luminescence detection based BRET assay; assay type: functional, cell-based
T3 sequence (whole entry): T1 sequence (Q9UKP6 whole entry)

[7] = target: T3, Urotensin-2 receptor (Homo sapiens); test: Bias factor, ratio of deltalog(Tau/KA) for agonist activity at human UT receptor expressed in HEK293 cells co-expressing beta-arrestin1-polycistronic BRET biosensor assessed as induction of beta-arrestin1 recruitment by luminescence detection based BRET assay to deltalog(Tau/KA) for agonist activity at human UT receptor expressed in HEK293 cells co-expressing G12-polycistronic BRET biosensor assessed as induction of G12 activation by luminescence detection based BRET assay; assay type: functional, cell-based
[8] = target: T3, Urotensin-2 receptor (Homo sapiens); test: Bias factor, ratio of deltalog(Tau/KA) for agonist activity at human UT receptor expressed in HEK293 cells co-expressing G12-polycistronic BRET biosensor assessed as induction of G12 activation by luminescence detection based BRET assay to deltalog(Tau/KA) for agonist activity at human UT receptor expressed in HEK293 cells co-expressing beta-arrestin1-polycistronic BRET biosensor assessed as induction of beta-arrestin1 recruitment by luminescence detection based BRET assay; assay type: functional, cell-based
[9] = target: T4, Urotensin-2 receptor (Rattus norvegicus) (UniProt P49684); test: (§1) Antagonist activity at UT receptor in Sprague-Dawley rat thoracic aortic ring assessed as reduction in URP-induced contraction by measuring Emax for […] at 1 uM pre-incubated for 30 mins […] relative to KCl-induced contraction (reference value: 107 +/- 3%); assay type: functional
T4 sequence (whole entry): T2 sequence (P49684 whole entry)

[10] = target: T4, Urotensin-2 receptor (Rattus norvegicus); test: as §1, with “urotensin-2-induced” for “URP-induced”, “101” for “107”, “4%)” for “3%)”; assay type: functional
[11] = target: T3, Urotensin-2 receptor (Homo sapiens); test: Agonist activity at human UT receptor expressed in HEK293 cells co-expressing G12-polycistronic BRET biosensor assessed as induction of G12 activation measured for 5 mins by luminescence detection based BRET assay relative to 10 uM URP; assay type: functional, cell-based
[12] = target: T3, Urotensin-2 receptor (Homo sapiens); test: Selectivity index, change in deltalog(Tau/KA) for agonist activity at human UT receptor expressed in HEK293 cells co-expressing beta-arrestin1-polycistronic BRET biosensor assessed as induction of beta-arrestin1 recruitment by luminescence detection based BRET assay to deltalog(Tau/KA) for agonist activity at human UT receptor expressed in HEK293 cells co-expressing G12-polycistronic BRET biosensor assessed as induction of G12 activation by luminescence detection based BRET assay to; assay type: functional, cell-based
[13] = target: T3, Urotensin-2 receptor (Homo sapiens); test: Agonist activity at human UT receptor expressed in HEK293 cells co-expressing Gq-polycistronic BRET biosensor assessed as induction of Gq activation measured for 5 mins by luminescence detection based BRET assay relative to 10 uM URP; assay type: functional, cell-based
[14] = target: T3, Urotensin-2 receptor (Homo sapiens); test: Bias factor, ratio of deltalog(Tau/KA) for agonist activity at human UT receptor expressed in HEK293 cells co-expressing Gq-polycistronic BRET biosensor assessed as induction of Gq activation by luminescence detection based BRET assay to deltalog(Tau/KA) for agonist activity at human UT receptor expressed in HEK293 cells co-expressing beta-arrestin1-polycistronic BRET biosensor assessed as induction of beta-arrestin1 recruitment by luminescence detection based BRET assay; assay type: functional, cell-based
[15] = target: T4, Urotensin-2 receptor (Rattus norvegicus); test: Agonist activity at UT receptor in Sprague-Dawley rat thoracic aortic ring assessed as induction of contraction relative to KCl-induced contraction; assay type: functional
[16] = target: T3, Urotensin-2 receptor (Homo sapiens); test: Agonist activity at human UT receptor expressed in HEK293 cells co-expressing beta-arrestin1-polycistronic BRET biosensor assessed as induction of beta-arrestin1 recruitment measured for 5 mins by luminescence detection based BRET assay relative to 10 uM URP; assay type: functional, cell-based
[17] = target: T3, Urotensin-2 receptor (Homo sapiens); test: Selectivity index, change in deltalog(Tau/KA) for agonist activity at human UT receptor expressed in HEK293 cells co-expressing Gq-polycistronic BRET biosensor assessed as induction of Gq activation by luminescence detection based BRET assay to deltalog(Tau/KA) for agonist activity at human UT receptor expressed in HEK293 cells co-expressing beta-arrestin1-polycistronic BRET biosensor assessed as induction of beta-arrestin1 recruitment by luminescence detection based BRET assay; assay type: functional, cell-based
[18] = target: T3, Urotensin-2 receptor (Homo sapiens); test: Bias factor, ratio of deltalog(Tau/KA) for agonist activity at human UT receptor expressed in HEK293 cells co-expressing Gq-polycistronic BRET biosensor assessed as induction of Gq activation by luminescence detection based BRET assay to deltalog(Tau/KA) for agonist activity at human UT receptor expressed in HEK293 cells co-expressing G12-polycistronic BRET biosensor assessed as induction of G12 activation by luminescence detection based BRET assay; assay type: functional, cell-based
[19] = target: T3, Urotensin-2 receptor (Homo sapiens); test: Bias factor, ratio of deltalog(Tau/KA) for agonist activity at human UT receptor expressed in HEK293 cells co-expressing beta-arrestin1-polycistronic BRET biosensor assessed as induction of beta-arrestin1 recruitment by luminescence detection based BRET assay to deltalog(Tau/KA) for agonist activity at human UT receptor expressed in HEK293 cells co-expressing Gq-polycistronic BRET biosensor assessed as induction of Gq activation by luminescence detection based BRET assay; assay type: functional, cell-based
[20] = target: T3, Urotensin-2 receptor (Homo sapiens); test: Selectivity index, change in deltalog(Tau/KA) for agonist activity at human UT receptor expressed in HEK293 cells co-expressing G12-polycistronic BRET biosensor assessed as induction of G12 activation by luminescence detection based BRET assay to deltalog(Tau/KA) for agonist activity at human UT receptor expressed in HEK293 cells co-expressing Gq-polycistronic BRET biosensor assessed as induction of Gq activation by luminescence detection based BRET assay; assay type: functional, cell-based

Row | pEC50 (Urotensin-2 receptor [1]) | pIC50 (Urotensin-2 receptor [2]) | pEC50 (Urotensin-2 receptor [3]) | pEC50 (Urotensin-2 receptor [4]) | pEC50 (Urotensin-2 receptor [5]) | fold change (FC) [6] | fold change (FC) [7] | fold change (FC) [8] | Emax [9] [%] | Emax [10] [%] | Emax [11] [%] | deltadeltalog(Tau/KA) (beta-arrestin1 selectivity index) [12] | Emax [13] [%] | fold change (FC) [14] | Emax [15] [%] | Emax [16] [%] | selectivity index, deltadeltalog(Tau/KA) [17] | fold change (FC) [18] | fold change (FC) [19] | deltalog(Tau/KA) [20] | SMILES
1 | 6.21 | < 6.00 | 5.48 | 8.87 | 6.42 |  |  |  |  |  |  |  |  |  |  |  |  |  |  |  | CC(C)[C@H](NC(=O)[C@@H]1CSSC[C@H](NC(=O)[C@H](C)N)C(=O)N[C@H](Cc2ccc(C#Cc3ccccc3)cc2)C(=O)N[C@@H](Cc2c[nH]c3ccccc23)C(=O)N[C@@H](CCCCN)C(=O)N[C@@H](Cc2ccc(O)cc2)C(=O)N1)C(=O)O
2 | 5.45 | < 6.00 | 5.94 | 8.72 | 6.18 |  |  |  |  |  |  |  |  |  |  |  |  |  |  |  | CC(C)[C@H](NC(=O)[C@@H]1CSSC[C@H](NC(=O)[C@H](C)N)C(=O)N[C@H](Cc2ccc(-c3ccccc3)cc2)C(=O)N[C@@H](Cc2c[nH]c3ccccc23)C(=O)N[C@@H](CCCCN)C(=O)N[C@@H](Cc2ccc(O)cc2)C(=O)N1)C(=O)O
3 |  |  |  |  |  | 12.1 | 0.2 | 5.6 | 104 | 100 | 72 | -0.75 | 101 | 0.5 | 8 | 36 | -0.34 | 0.1 | 2.2 | 1.08 | CC(C)[C@H](NC(=O)[C@@H]1CSSC[C@H](NC(=O)[C@@H](C)N)C(=O)N[C@@H](Cc2ccc(C#Cc3ccccc3)cc2)C(=O)N[C@@H](Cc2c[nH]c3ccccc23)C(=O)N[C@@H](CCCCN)C(=O)N[C@@H](Cc2ccc(O)cc2)C(=O)N1)C(=O)O
4 |  |  |  |  |  | 7.8 | 1.1 | 0.9 | 100 | 52 | 68 | 0.04 | 87 | 0.1 | 20 | 99 | -0.94 | 0.1 | 8.6 | 0.89 | CC(C)[C@H](NC(=O)[C@@H]1CSSC[C@H](NC(=O)[C@@H](C)N)C(=O)N[C@@H](Cc2ccc(I)cc2)C(=O)N[C@@H](Cc2c[nH]c3ccccc23)C(=O)N[C@@H](CCCCN)C(=O)N[C@@H](Cc2ccc(O)cc2)C(=O)N1)C(=O)O
5 | 7.27 | < 6.00 | 6.45 | 7.86 | 7.05 |  |  |  |  |  |  |  |  |  |  |  |  |  |  |  | CC(C)[C@H](NC(=O)[C@@H]1CSSC[C@H](NC(=O)[C@H](C)N)C(=O)N[C@H](Cc2ccc(I)cc2)C(=O)N[C@@H](Cc2c[nH]c3ccccc23)C(=O)N[C@@H](CCCCN)C(=O)N[C@@H](Cc2ccc(O)cc2)C(=O)N1)C(=O)O

Source: ChEMBL document CHEMBL4196183, “Discovery of New Allosteric Modulators of the Urotensinergic System through Substitution of the Urotensin II-Related Peptide (URP) Phenylalanine Residue” (J Med Chem, 2018)
